Here are results for 32 compounds from US20240270751A1, “Pyrazolopyridinone Compounds” (BeiGene Ltd., priority 2021, published 2024).

Some results are limits rather than exact numbers.

The target of one test is DGKα (Homo sapiens (Human), UniProt P23743). The test can be described thus: Biochemical DGK IC50 assay, DGKα ADP-Glo assay. The note with it: 7.5 nM enzyme, 140 μM ATP, 80 μM DAG. The essentials: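 Compounds at final 1.55˜10000 nM or 23.3˜150000 nM were tested against full-length DGKα. Substrate was lipid micelles of DAG and PS resuspended in 25 mM HEPES pH 7.0 with 0.5 mM EDTA and 160 mM octyl β-D-glucopyranoside. ADP formed was detected by ADP-Glo.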
Sequence of DGKα (P23743 whole entry): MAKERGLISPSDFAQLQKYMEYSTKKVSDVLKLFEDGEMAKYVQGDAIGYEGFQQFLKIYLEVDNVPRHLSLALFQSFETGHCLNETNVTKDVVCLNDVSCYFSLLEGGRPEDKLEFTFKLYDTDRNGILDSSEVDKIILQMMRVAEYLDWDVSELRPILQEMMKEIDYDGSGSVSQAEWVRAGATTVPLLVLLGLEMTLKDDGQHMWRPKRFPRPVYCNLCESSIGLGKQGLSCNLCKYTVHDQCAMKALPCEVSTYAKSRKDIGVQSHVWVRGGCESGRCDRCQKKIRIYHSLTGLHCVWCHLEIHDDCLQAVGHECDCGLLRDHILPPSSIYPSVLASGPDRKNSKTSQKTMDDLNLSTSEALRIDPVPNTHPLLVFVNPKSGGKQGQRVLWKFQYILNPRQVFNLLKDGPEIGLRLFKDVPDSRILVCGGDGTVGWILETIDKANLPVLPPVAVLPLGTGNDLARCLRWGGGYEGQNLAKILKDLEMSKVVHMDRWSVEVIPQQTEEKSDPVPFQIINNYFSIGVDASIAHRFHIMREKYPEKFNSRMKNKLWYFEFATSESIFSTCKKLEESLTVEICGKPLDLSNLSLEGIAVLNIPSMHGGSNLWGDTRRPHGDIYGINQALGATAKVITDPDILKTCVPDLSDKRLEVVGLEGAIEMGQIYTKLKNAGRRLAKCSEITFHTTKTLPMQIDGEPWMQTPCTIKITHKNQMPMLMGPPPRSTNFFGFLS
For orientation: In ADP-Glo the light output rises with the ADP produced.

In the next test the target is DGKζ (Homo sapiens (Human), UniProt Q13574). The test can be described thus: Biochemical DGK IC50 assay, DGKζ ADP-Glo assay. The note with it: 0.5 nM enzyme, 140 μM ATP, 80 μM DAG; read-out: DGKζ ADP-Glo assay IC50. In short, it runs like this: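 ADP formation measured by ADP-Glo luminescence, with test compounds at final 1.55–10000 nM or 23.3–150000 nM. Enzyme: purified full-length human DGKζ from Sf9 insect cells; substrate: DAG/PS micelles in 25 mM HEPES pH 7.0, 0.5 mM EDTA, octyl glucoside.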
Sequence of DGKζ (Q13574 other isoform, or with tags, fused parts or gaps): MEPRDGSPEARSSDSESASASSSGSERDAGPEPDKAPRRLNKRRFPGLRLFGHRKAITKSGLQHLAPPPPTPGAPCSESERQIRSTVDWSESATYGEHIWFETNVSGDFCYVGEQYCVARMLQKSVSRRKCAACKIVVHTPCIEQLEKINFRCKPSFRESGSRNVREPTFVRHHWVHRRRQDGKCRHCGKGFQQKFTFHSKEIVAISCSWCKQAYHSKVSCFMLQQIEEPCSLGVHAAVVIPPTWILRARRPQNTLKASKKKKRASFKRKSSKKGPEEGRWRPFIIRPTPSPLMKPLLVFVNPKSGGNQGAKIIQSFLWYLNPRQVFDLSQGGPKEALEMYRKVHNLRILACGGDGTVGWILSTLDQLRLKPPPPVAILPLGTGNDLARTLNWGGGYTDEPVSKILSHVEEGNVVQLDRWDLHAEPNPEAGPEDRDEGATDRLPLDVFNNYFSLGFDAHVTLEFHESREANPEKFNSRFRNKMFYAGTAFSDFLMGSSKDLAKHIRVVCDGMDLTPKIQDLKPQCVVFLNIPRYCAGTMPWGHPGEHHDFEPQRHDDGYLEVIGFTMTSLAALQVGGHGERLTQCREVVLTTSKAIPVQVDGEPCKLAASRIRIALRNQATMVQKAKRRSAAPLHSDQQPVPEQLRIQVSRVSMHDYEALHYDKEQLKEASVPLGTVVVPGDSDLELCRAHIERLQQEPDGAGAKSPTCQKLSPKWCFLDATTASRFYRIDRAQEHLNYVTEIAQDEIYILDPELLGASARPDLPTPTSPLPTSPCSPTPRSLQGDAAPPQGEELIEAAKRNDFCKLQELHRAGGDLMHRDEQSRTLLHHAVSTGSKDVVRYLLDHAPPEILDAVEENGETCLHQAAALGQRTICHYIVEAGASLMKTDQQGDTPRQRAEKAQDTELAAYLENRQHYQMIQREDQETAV

As to `CC(c1ccc2nccnc2c1)N1C[C@H](C)N(c2cc(=O)n(C)c3cn(CC#N)nc23)C[C@H]1CO` (stereo partly drawn) [Compound A99, 2-(7-((2S,5S)-5-(hydroxymethyl)-2-methyl-4-(1-(quinoxalin-6-yl)ethyl)piperazin-1-yl)-4-methyl-5-oxo-4,5-dihydro-2H-pyrazolo[4,3-b]pyridin-2-yl)acetonitrile], the results for the IC50 on DGKα and on DGKζ were above 10000 nM and 2790 nM, respectively.

Take `COC[C@@H]1CN(c2cc(=O)n(C)c3cn(CC#N)nc23)[C@@H](C)CN1C(C)c1ccc2nccnc2c1` (stereo partly drawn) [Compound A100, 2-(7-((2S,5S)-5-(methoxymethyl)-2-methyl-4-(1-(quinoxalin-6-yl)ethyl)piperazin-1-yl)-4-methyl-5-oxo-4,5-dihydro-2H-pyrazolo[4,3-b]pyridin-2-yl)acetonitrile]: the IC50 against DGKα amounted to 3780 nM; on DGKζ, 200 nM.

In the case of `CC(c1ccc2nccnc2c1)N1C[C@H](CO)N(c2cc(=O)n(C)c3cn(CC#N)nc23)C[C@H]1C` (stereo partly drawn) [Compound A101, 2-(7-((2R,5R)-2-(hydroxymethyl)-5-methyl-4-(1-(quinoxalin-6-yl)ethyl)piperazin-1-yl)-4-methyl-5-oxo-4,5-dihydro-2H-pyrazolo[4,3-b]pyridin-2-yl)acetonitrile], the IC50 is above 10000 nM at DGKα and 707 nM on DGKζ.

For the compound `CC(c1ccc2nccnc2c1)N1C[C@H](C)N(c2cc(=O)[nH]c3cn(CC#N)nc23)C[C@H]1C` (stereo partly drawn) [Compound A102, 2-(7-((2S,5R)-2,5-dimethyl-4-(1-(quinoxalin-6-yl)ethyl)piperazin-1-yl)-5-oxo-4,5-dihydro-2H-pyrazolo[4,3-b]pyridin-2-yl)acetonitrile], the IC50 against DGKα was above 10000 nM; at DGKζ it was 288 nM.

As to `CC[C@H]1CN(C(C)c2cccn(C)c2=O)[C@H](CC)CN1c1cc(=O)n(C)c2cn(CC#N)nc12` (stereo partly shown) [Compound A104], the IC50 against DGKα and on DGKζ was above 10000 nM each time.

`CC[C@H]1CN(C(C)c2cccnc2OC)[C@H](CC)CN1c1cc(=O)n(C)c2cn(CC#N)nc12` (stereo partly shown) [Compound A105]: the IC50 at DGKα was found to be 8920 nM; at DGKζ it was 258 nM.

Turning to `CC[C@H]1CN(C(C)c2ccccc2COC)[C@H](CC)CN1c1cc(=O)n(C)c2cn(CC#N)nc12` (stereo partly shown) [Compound A107], the values for the IC50 against DGKα and at DGKζ were above 10000 nM and 272 nM, respectively.

For `CC[C@H]1CN(C(C)c2cccc(C(N)=O)c2)[C@H](CC)CN1c1cc(=O)n(C)c2cn(CC#N)nc12` (stereo partly shown) [Compound A108], the values for the 50% inhibitory concentration (IC50) against DGKα and on DGKζ were 3830 nM and above 10000 nM, respectively.

For `CC[C@H]1CN(C(C)c2cccc(NC(C)=O)c2)[C@H](CC)CN1c1cc(=O)n(C)c2cn(CC#N)nc12` (stereo partly shown) [Compound A109], the IC50 against DGKα is 6170 nM; on DGKζ it was 7850 nM.

Consider `CC[C@H]1CN(C(C)c2ccc(F)cc2Br)[C@H](CC)CN1c1cc(=O)n(C)c2cn(CC#N)nc12` (stereo partly drawn) [Compound A111, 2-(7-((2S,5R)-4-(1-(2-bromo-4-fluorophenyl)ethyl)-2,5-diethylpiperazin-1-yl)-4-methyl-5-oxo-4,5-dihydro-2H-pyrazolo[4,3-b]pyridin-2-yl)acetonitrile], for which the IC50 was above 10000 nM against DGKα and 96 nM at DGKζ.

Regarding `CC[C@H]1CN(C(C)c2cc(C)ccc2C(F)(F)F)[C@H](CC)CN1c1cc(=O)n(C)c2cn(CC#N)nc12` (stereo partly shown) [Compound A114], the results for the IC50 against DGKα and on DGKζ were above 10000 nM and 6600 nM, respectively.

Take `CC[C@H]1CN(C(C)c2ccc(F)cc2Cl)[C@H](CC)CN1c1cc(=O)n(C)c2cn(CC#N)nc12` (stereo partly shown) [Compound A116]: the IC50 at DGKα was 5760 nM; at DGKζ, 146 nM.

As to `CC[C@H]1CN(C(C)c2c(C)cccc2C(F)(F)F)[C@H](CC)CN1c1cc(=O)n(C)c2cn(CC#N)nc12` (stereo partly shown) [Compound A117], the IC50 was above 10000 nM on DGKα and 3870 nM at DGKζ.

Regarding `CC[C@H]1CN(C(C)c2ccncc2C(F)(F)F)[C@H](CC)CN1c1cc(=O)n(C)c2cn(CC#N)nc12` (stereo partly shown) [Compound A118], the IC50 on DGKα was above 150000 nM; on DGKζ it was 185 nM.

In the case of `CC[C@H]1CN(C(C)c2cccc(CO)c2)[C@H](CC)CN1c1cc(=O)n(C)c2cn(CC#N)nc12` (stereo partly shown) [Compound A121b], the IC50 is 4160 nM against DGKα and above 10000 nM at DGKζ.

Regarding `CC[C@H]1CN(C(C)c2ccc(OC(F)(F)F)cc2)[C@H](CC)CN1c1cc(=O)n(C)c2cn(CC#N)nc12` (stereo partly shown) [Compound A122], the IC50 worked out at 10.5 nM against DGKα and 635 nM on DGKζ.

Regarding `CC[C@H]1CN(C(C)c2ccc3nccnc3c2)[C@H](CC)CN1c1cc(=O)n(CC(F)(F)F)c2cn(CC#N)nc12` (stereo partly drawn) [Compound A123, 2-(7-((2S,5R)-2,5-diethyl-4-(1-(quinoxalin-6-yl)ethyl)piperazin-1-yl)-5-oxo-4-(2,2,2-trifluoroethyl)-4,5-dihydro-2H-pyrazolo[4,3-b]pyridin-2-yl)acetonitrile], the IC50 came to 6030 nM on DGKα and 1740 nM at DGKζ.

Consider `CC[C@H]1CN([C@H](C)c2ccc3nccnc3c2)[C@H](CC)CN1c1cc(=O)n(CC(F)(F)F)c2cn(CC#N)nc12` [Compound A124], for which the IC50 against DGKα and on DGKζ was above 10000 nM each time.

Regarding `C[C@@H](c1ccc2nccnc2c1)N1CC2CCC1CN2c1cc(=O)n(C)c2cn(CC#N)nc12` (stereo partly shown) [Compound A125a], the IC50 against DGKα and on DGKζ was above 10000 nM in each case.

On to `C[C@H](c1ccc2nccnc2c1)N1CC2CCC1CN2c1cc(=O)n(C)c2cn(CC#N)nc12` (stereo partly shown) [Compound A125b], for which the IC50 against DGKα is above 10000 nM; on DGKζ, 5270 nM.

On to `CC[C@H]1CN(C(C)c2ccc3c(c2)OCCO3)[C@H](CC)CN1c1cc(=O)n(C)c2cn(CC#N)nc12` (stereo partly drawn) [Compound A126, 2-(7-((2S,5R)-4-(1-(2,3-dihydrobenzo[b][1,4]dioxin-6-yl)ethyl)-2,5-diethylpiperazin-1-yl)-4-methyl-5-oxo-4,5-dihydro-2H-pyrazolo[4,3-b]pyridin-2-yl)acetonitrile], for which the IC50 at DGKα is 449 nM; at DGKζ it was 7.2 nM.

As to `CC[C@H]1CN(C(C)c2ccc(C)cc2)[C@H](CC)CN1c1cc(=O)n(C)c2cn(CC#N)nc12` (stereo partly drawn) [Compound A127, 2-(7-((2S,5R)-2,5-diethyl-4-(1-(p-tolyl)ethyl)piperazin-1-yl)-4-methyl-5-oxo-4,5-dihydro-2H-pyrazolo[4,3-b]pyridin-2-yl)acetonitrile], the IC50 was determined as 56 nM against DGKα and 260 nM at DGKζ.

For `CC[C@H]1CN(C(C)c2ccc(C(F)F)cc2)[C@H](CC)CN1c1cc(=O)n(C)c2cn(CC#N)nc12` (stereo partly shown) [Compound A128], the IC50 came to 31 nM at DGKα and 112 nM at DGKζ.

For `CC[C@H]1CN([C@@H](C)c2ccc3nccnc3c2)[C@H](CC)CN1c1cc(=O)[nH]c2cn(CC#N)nc12` [Compound A129, 2-(7-((2S,5R)-2,5-diethyl-4-((S)-1-(quinoxalin-6-yl)ethyl)piperazin-1-yl)-5-oxo-4,5-dihydro-2H-pyrazolo[4,3-b]pyridin-2-yl)acetonitrile], the IC50 came to 2350 nM against DGKα and 33 nM on DGKζ.

With `CC[C@H]1CN(C(C)c2ncccn2)[C@H](CC)CN1c1cc(=O)n(C)c2cn(CC#N)nc12` (stereo partly shown) [Compound A130], the values for the IC50 on DGKα and on DGKζ were 15 nM and 9080 nM, respectively.

`CC[C@H]1CN(C(C)c2ccncn2)[C@H](CC)CN1c1cc(=O)n(C)c2cn(CC#N)nc12` (stereo partly shown) [Compound A131]: the IC50 is 287 nM at DGKα and 8990 nM on DGKζ.

For `C[C@@H]1CN(c2c(Cl)c(=O)n(C)c3cn(CC#N)nc23)[C@@H](C)CN1[C@@H](C)c1ccc2nccnc2c1` [Compound A133, 2-(6-chloro-7-((2S,5R)-2,5-dimethyl-4-((S)-1-(quinoxalin-6-yl)ethyl)piperazin-1-yl)-4-methyl-5-oxo-4,5-dihydro-2H-pyrazolo[4,3-b]pyridin-2-yl)acetonitrile], the IC50 against DGKα is above 10000 nM; on DGKζ it was 9390 nM.

For `C[C@@H]1CN(c2c(C#N)c(=O)n(C)c3cn(CC#N)nc23)[C@@H](C)CN1[C@@H](C)c1ccc2nccnc2c1` [Compound A134, 2-(cyanomethyl)-7-((2S,5R)-2,5-dimethyl-4-((S)-1-(quinoxalin-6-yl)ethyl)piperazin-1-yl)-4-methyl-5-oxo-4,5-dihydro-2H-pyrazolo[4,3-b]pyridine-6-carbonitrile], the figures for the IC50 at DGKα and at DGKζ were 1940 nM and 35 nM, respectively.

Turning to `CC[C@H]1CN(C(C)c2ncc(F)cc2C(F)(F)F)[C@H](CC)CN1c1cc(=O)n(C)c2cn(CC#N)nc12` (stereo partly drawn) [Compound A136, 2-(7-((2S,5R)-2,5-diethyl-4-(1-(5-fluoro-3-(trifluoromethyl)pyridin-2-yl)ethyl)piperazin-1-yl)-4-methyl-5-oxo-4,5-dihydro-2H-pyrazolo[4,3-b]pyridin-2-yl)acetonitrile], the IC50 stood at 61900 nM against DGKα and 317 nM on DGKζ.

As to `CC[C@@H]1CN(c2cc(=O)n(C)c3cn(CC#N)nc23)[C@@H](C)CN1C(C)c1ccc(F)cc1OC` (stereo partly drawn) [Compound A137, 2-(7-((2S,5R)-5-ethyl-4-(1-(4-fluoro-2-methoxyphenyl)ethyl)-2-methylpiperazin-1-yl)-4-methyl-5-oxo-4,5-dihydro-2H-pyrazolo[4,3-b]pyridin-2-yl)acetonitrile], the IC50 against DGKα is above 10000 nM; on DGKζ, 106 nM.

On to `CC[C@H]1CN(C(C)c2ccc3c(c2)NCCO3)[C@H](CC)CN1c1cc(=O)n(C)c2cn(CC#N)nc12` (stereo partly shown) [Compound A138], for which the 50% inhibitory concentration (IC50) came to 1280 nM against DGKα and 480 nM at DGKζ.

For `CC[C@H]1CN(C(C)c2ccc(OC(C)C)cn2)[C@H](CC)CN1c1cc(=O)n(C)c2cn(CC#N)nc12` (stereo partly shown) [Compound A140], the half-maximal inhibitory concentration (IC50) against DGKα is 82 nM; on DGKζ it was 189 nM.

A word on the IC50: it is the concentration needed to halve the response being measured.
